According to patent US20220079903A1, “COMPOSITIONS AND METHODS FOR TREATING AND PREVENTING ADHESIONS AND ILUES” (Leading Biosciences, Inc., priority 2016, published 2022):
Entries after “also recorded” stand apart in the source; their conditions may differ.

Test system: abdominal adhesions in a rat model of surgical adhesions
Test: rat model of surgical (abdominal) adhesions, small intestine rubbed with latex glove
Format: in vivo, Wistar rats
Protocol: The objective of the current study was to compare the efficacy of enteral saline, enteral Formula A, lavage tranexamic acid (TXA), and enteral Formula A with lavage TXA to prevent abdominal adhesions in a rat model of surgical adhesions.
The tests were conducted on Wistar rats from Harlan/Charles River. The sample size included 40 animals in total, with a target weight of 350-400 g (males). The rat was selected as the test model since it is accepted by regulatory authorities as a rodent animal model for toxicity studies, and high quality animals are readily available and a large amount of background pathology data is available in this species. […] The model reproducibility provides the ability to observe directional proof of concept data within normal experimental conditions.
Four groups were measured; Group 1 served as the control wherein saline (Baxter, 0.9% sodium chloride IV solution bags) was administered via enteral administration; subjects in Group 2 were exposed to an enteral administration of Formula A; subjects in Group 3 were exposed to a lavage of tranexamic acid (TXA) and saline; and subjects in Group 4 were given enteral administration of Formula A and a lavage of tranexamic acid (TXA) and saline.
Prior to the experiment, the animals were fasted and prepared for the adhesion model according to the schedule: (A) Evening Prior to Experiment—Begin Fasting; (B) Day 1: Hour−2.0—Administration of enteral test article (oral gavage); (C) Day 1: Hour 0.0−Induction of anesthesia with ketamine with a dose of 75 mg/kg, I.M; and (D) Day 1: Hour 0+10 min—induction of surgical adhesion model.
A small skin incision in the midline of the abdomen was made for isolation of small intestine. A length of the small intestine was rubbed gently with a latex glove 10 times. Animals were given abdominal lavage test article immediately after the small intestine was rubbed. Laparotomy was sutured and the animal allowed to recover. During surgery, the animals were kept warm (37° C.) at all times by a temperature therapy pad and vital signs (systemic blood pressure or respiratory rate, body temperature) were monitored at all times during experiment. Leg motion and toe reflexes were monitored for anesthetic level. On day 28—The animals were euthanized and the number and size/thickness of adhesions were quantified.

[1] = vs enteral saline Group 1, 2 side T-test

NC[C@H]1CC[C@H](C(=O)O)CC1 [tranexamic acid (TXA), tranexamic acid]
mean number of adhesions per animal (Wistar rats, day 28, enteral = 4 ml oral gavage 2 hr pre surgery, lavage = 4 ml TXA in saline right after rubbing, saline control 4.10): 0.67
mean severity of adhesions (score) (day 28, score 0-4: 4 = no adhesions, 3 ≤1 mm, 2 >1 mm ≤2 mm, 1 >2 mm, 0 = kinked intestine, saline control 1.60): 3.00
number of adhesions relative to the control (in words) [1]: significantly less adhesions relative to the control; also recorded: significant relative to the control Group 1
severity of adhesions relative to the control (in words) [1]: significantly smaller adhesions in terms of severity relative to the control; also recorded: significant relative to the control Group 1
